Assay results published in patent US6787541B1, “Thieno-and furopyrimidine derivatives as A2A-receptor antagonists” (Vernalis Research Limited, priority 1999, dated 2004).
Structures can show the parent of a compound that is named as a salt.

What was measured:
[1] = biological target: T1, human adenosine A2A receptors expressed in HEK-293 cells (Homo sapiens, UniProt P29274); experiment: Binding affinities at hA2A receptors, displacement of [3H]-CGS 21680
T1 construct: expressed in transfected cells; host or cells: HEK-293 cells
T1 sequence (P29274 whole entry): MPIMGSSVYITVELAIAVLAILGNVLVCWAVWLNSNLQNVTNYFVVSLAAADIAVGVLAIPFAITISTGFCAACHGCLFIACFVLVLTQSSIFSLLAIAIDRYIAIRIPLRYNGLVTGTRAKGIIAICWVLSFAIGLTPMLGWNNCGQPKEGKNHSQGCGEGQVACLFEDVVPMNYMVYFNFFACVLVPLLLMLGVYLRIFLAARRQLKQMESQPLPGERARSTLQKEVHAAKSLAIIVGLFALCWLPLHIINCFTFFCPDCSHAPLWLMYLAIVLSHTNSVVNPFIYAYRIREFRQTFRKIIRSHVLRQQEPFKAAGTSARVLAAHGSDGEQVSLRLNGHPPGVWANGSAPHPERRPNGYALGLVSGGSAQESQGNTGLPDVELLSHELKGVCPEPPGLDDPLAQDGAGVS

Compound	Ki [1] [nM]	melting point [°C]
O=C(c1ccccc1Cl)c1nc(C(F)(F)F)nc2ccsc12 [Example 8, 2-Chlorophenyl 2-trifluoromethylthieno[3,2-d]pyrimidin-4-ylmethanone]	586	122 to 123
Cc1ccccc1C(=O)c1nc(C(F)(F)F)nc2ccsc12 [Example 11, 2-Methylphenyl 2-trifluoromethylthieno[3,2-d]pyrimidin-4-ylmethanone]	330	116 to 118
O=C(c1ccccc1)c1nc(Cl)nc2ccsc12 [Example 28, 2-Chlorothieno[3,2-d]pyrimidin-4-yl phenylmethanone]	865	162.2 to 163.1
Cc1ccc(C(=O)c2nc(C(F)(F)F)nc3ccsc23)cc1 [Example 29, 4-Methylphenyl 2-trifluoromethylthieno[3,2-d]pyrimidin-4-ylmethanone]	539	127 to 129
CCc1nc(C(C#N)c2ccccn2)c2sccc2n1 (stereo not drawn) [Example 34, 2-Ethyl-α-(2-pyridyl)thieno[3,2-d]pyrimidine-4-acetonitrile]	245	240 to 242
COc1nc(C(=O)c2cccs2)c2scc(C)c2n1 [Example 37, 2-Methoxy-7-methylthieno[3,2-d]pyrimidin-4-yl 2-thienylmethanone]	361	144 to 146
CSc1nc(C(=O)c2cccs2)c2scc(C)c2n1 [Example 39, 7-Methyl-2-methylthiothieno[3,2-d]pyrimidin-4-yl 2-thienylmethanone]	575	144 to 166
CN(C)c1nc(C(=O)c2ccccc2)c2sccc2n1 [Example 40, 2-Dimethylaminothieno[3,2-d]pyrimidin-4-yl phenylmethanone]	295	116.5 to 117
O=C(c1cccs1)c1nc(Cl)nc2ccsc12 [Example 44, 2-Chlorothieno[3,2-d]pyrimidin-4-yl 2-thienylmethanone]	91	190.5 to 191
O=C(c1ccc(Br)s1)c1nc(C(F)(F)F)nc2ccsc12 [Example 46, 5-Bromo-2-thienyl 2-trifluoromethylthieno[3,2-d]pyrimidin-4-ylmethanone]	101	180 to 182
CSc1nc(C(=O)c2cccs2)c2sccc2n1 [Example 48, 2-Methylthiothieno[3,2-d]pyrimidin-4-yl 2-thienylmethanone]	151	189.7 to 190.6
CN(C)c1ccc(C(=O)c2nc(C(F)(F)F)nc3ccsc23)s1 [Example 56, 5-Dimethylamino-2-thienyl 2-trifluoromethylthieno[3,2-d]pyrimidin-4-ylmethanone]	309	188 to 191
O=C(c1cc(Br)cs1)c1nc(C(F)(F)F)nc2ccsc12 [Example 57, 4-Bromo-2-thienyl 2-trifluoromethylthieno[3,2-d]pyrimidin-4-ylmethanone]	800	178 to 179
CN(C)CCNc1nc(C(=O)c2cccs2)c2sccc2n1 [Example 66, 2-(2-Dimethylaminoethylamino)thieno[3,2-d]pyrimidin-4-yl 2-thienylmethanone dihydrochloride]	218	–
CCCc1nc(C(O)c2cccs2)c2sccc2n1 (stereo not drawn) [Example 67, 2-n-Propyl-α-(2-thienyl)thieno[3,2-d]pyrimidine-4-methanol]	469	–
CN(C)c1nc(C(=O)c2cccs2)c2scc(-c3ccco3)c2n1 [Example 79, 2-Dimethylamino-7-(2-furyl)thieno[3,2-d]pyrimidin-4-yl 2-thienylmethanone]	858	–
CN1CCN(c2nc(C(=O)c3cccs3)c3sccc3n2)CC1 [Example 83, 2-(4-Methylpiperazinyl)thieno[3,2-d]pyrimidin-4-yl 2-thienylmethanone]	863	–
CC(C)(C)OC(=O)N1CCN(c2nc(C(=O)c3cccs3)c3sccc3n2)CC1 [Example 84, Tert-butyl 4-(4-(2-thienylcarbonyl)thieno[3,2-d]pyrimidin-2-yl)piperazinecarboxylate]	392	–
Cc1ccsc1C(=O)c1nc(N2CCC[C@@H]2CO)nc2ccsc12 [Example 129, (2R)-2-(2-Hydroxymethylpyrrolidin-1-yl)thieno[3,2-d]pyrimidin-4-yl 3-methyl-2-thienylmethanone]	–	96.2 to 96.9
CC(=O)NNc1nc(C(=O)c2cccs2)c2sccc2n1 [Example 130, Acetic acid 2-(4-(2-thienylcarbonyl)thieno[3,2-d]pyrimidin-2-yl)hydrazide]	–	258.3 to 259
C=CCNC(=O)NNc1nc(C(=O)c2cccs2)c2sccc2n1 [Example 131, N-Allyl-2-(4-(2-thienylcarbonyl)thieno[3,2-d]pyrimidin-2-yl)hydrazinecarboxamide]	–	252.8 to 253.3
Cc1ccsc1C(=O)c1nc(NCCCn2ccnc2)nc2ccsc12 [Example 132, 2-(3-(1H-imidazol-1-yl)propylamino)thieno[3,2-d]pyrimidin-4-yl 3-methyl-2-thienylmethanone]	–	138.1 to 138.7
CN(C)CCNC(=O)c1nc(C(=O)c2cccs2)c2sccc2n1 [Example 134, N-(2-Dimethylaminoethyl)-4-(2-thienylcarbonyl)thieno[3,2-d]pyrimidin-2-carboxamide]	–	143.6 to 144.7
CN(C)C(=O)c1nc(C(=O)c2cccs2)c2sccc2n1 [Example 136, N,N-Dimethyl-4-(2-thienylcarbonyl)thieno[3,2-d]pyrimidin-2-carboxamide]	–	173.1 to 174
α-(2-Pyridyl-2-trifluoromethylthieno[3,2- d]pyrimidine-4-acetonitrile [Example 18]	346	–
α-(3-Thienyl-2-trifluoromethylthieno[3,2- d]pyrimidine-4-acetonitrile [Example 17]	895	–

The remaining compounds from weak to strong by Ki [1], led by results:

Ki [1] [nM]	melting point [°C]	Compound
78	–	NCCNc1nc(C(=O)c2cccs2)c2sccc2n1 [Example 55, 2-(2-Aminoethylamino)thieno[3,2-d]pyrimidin-4-yl 2-thienylmethanone dihydrochloride]
36	199.9 to 200.7	CC(C)(C)OC(=O)NCCNc1nc(C(=O)c2cccs2)c2sccc2n1 [Example 54, Tert-butyl (2-(4-(2-thienylcarbonyl)thieno[3,2-d]pyrimidin-2-yl)aminoethyl)carbamate]
31	165 to 167	O=C(c1ccc(Cl)s1)c1nc(C(F)(F)F)nc2ccsc12 [Example 12, 5-Chloro-2-thienyl 2-trifluoromethylthieno[3,2-d]pyrimidin-4-ylmethanone]
29	–	CN(CCO)c1nc(C(=O)c2cccs2)c2sccc2n1 [Example 82, 2-(N-(2-Hydroxyethyl)-N-methylamino)thieno[3,2-d]pyrimidin-4-yl 2-thienylmethanone]
26	201 to 202	Cc1ccsc1C(=O)c1nc(C(F)(F)F)nc2ccsc12 [Example 42, 3-Methyl-2-thienyl 2-trifluoromethylthieno[3,2-d]pyrimidin-4-ylmethanone]
15	–	CNc1nc(C(=O)c2cccs2)c2sccc2n1 [Example 58, 2-Methylaminothieno[3,2-d]pyrimidin-4-yl thienylmethanone]
8	–	C=CCNC(=O)NCCNc1nc(C(=O)c2cccs2)c2sccc2n1 [Example 159, N-Allyl-N′-(2-(4-(2-thienylcarbonyl)thieno[3,2-d]pyrimidin-2-yl)aminoethyl)urea]
7	–	O=C(c1cccs1)c1nc(NCC(O)CO)nc2ccsc12 (racemic) [Example 93, (2RS)-2-(2,3-Dihydroxypropylamino)thieno[3,2-d]pyrimidin-4-yl 2-thienylmethanone]
7	–	C[C@@H](CO)Nc1nc(C(=O)c2cccs2)c2sccc2n1 [Example 101, (2S)-2-(1-Hydroxy-2-propylamino)thieno[3,2-d]pyrimidin-4-yl 2-thienylmethanone]
7	–	O=C(c1cccs1)c1nc(NCCNC(=O)C2CCCCC2)nc2ccsc12 [Example 151, N-(2-(4-(2-Thienylcarbonyl)thieno[3,2-d]pyrimidin-2-yl)aminoethyl)cyclohexylcarboxamide]
6	–	C[C@@H](O)CNc1nc(C(=O)c2cccs2)c2sccc2n1 [Example 103, (2R)-2-(2-Hydroxypropylamino)thieno[3,2-d]pyrimidin-4-yl 2-thienylmethanone]
6	–	O=C(NCCNc1nc(C(=O)c2cccs2)c2sccc2n1)OCCCl [Example 158, 2-Chloroethyl (2-(4-(2-thienylcarbonyl)thieno[3,2-d]pyrimidin-2-yl)aminoethyl)carbamate]
5	–	O=C(c1cccs1)c1nc(NCCc2cnc[nH]2)nc2ccsc12 [Example 144, 2-(2-(1H-Imidazol-4-yl)ethylamino)thieno[3,2-d]pyrimdin-4-yl 2-thienylmethanone]
4	–	CC(C)CC(=O)NCCNc1nc(C(=O)c2cccs2)c2sccc2n1 [Example 150, 3-Methyl-N-(2-(4-(2-thienylcarbonyl)thieno[3,2-d]pyrimidin-2-yl)aminoethyl)butanamide]
4	–	COC(=O)NCCNc1nc(C(=O)c2cccs2)c2sccc2n1 [Example 155, Methyl (2-(4-(2-thienylcarbonyl)thieno[3,2-d]pyrimidin-2-yl)aminoethyl)carbamate]
3	–	CC(CO)Nc1nc(C(=O)c2cccs2)c2sccc2n1 (racemic) [Example 89, (2RS)-2-(1-Hydroxy-2-propylamino)thieno[3,2-d]pyrimidin-4-yl 2-thienylmethanone]
2	–	C[C@H](CO)Nc1nc(C(=O)c2cccs2)c2sccc2n1 [Example 102, (2R)-2-(1-Hydroxy-2-propylamino)thieno[3,2-d]pyrimidin-4-yl 2-thienylmethanone]
2	–	O=C(c1cccs1)c1nc(NCCCn2ccnc2)nc2ccsc12 [Example 104, 2-(3-(1H-Imidazol-1-yl)propylamino)thieno[3,2-d]pyrimidin-4-yl 2-thienylmethanone]
